Where a name gives a salt, the structure may show the parent alone.
Columns and labels:
BaF3 = test: Proliferation of BaF3 cells, CCK8 cell viability assay; format: cell-based; settings: Mus musculus, 72 hours
Summary of the method: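 Murine BaF3 lines carry retrovirally transduced human kinase domains fused to an N-terminal TEL fragment (cKIT, PDGFRα or PDGFRβ), and IL-3 is withdrawn so their growth depends on the fused kinase; parental BaF3 serves as the reference line. Living cells were quantified by CCK8 dehydrogenase activity, giving GI50 in μM.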

Tel-RET-BaF3 = test: Proliferation of Tel-RET-BaF3 cells, CCK8 cell viability assay; format: cell-based; settings: Mus musculus, 72 hours, stably expressing RET kinase
FLT3-ITD-BaF3 = test: Proliferation of FLT3-ITD-BaF3 cells, CCK8 cell viability assay; format: cell-based; settings: Mus musculus, 72 hours, stably expressing FLT3/ITD
Summary of the method: (§1)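 Human kinase-region sequences were PCR-amplified, fused behind N-terminal TEL in MSCV-Puro and stably introduced into mouse BaF3 by retrovirus. IL-3 was then removed to give kinase-dependent lines. Compound effects on these and on parental BaF3 are scored as GI50 (μM) via CCK8 viable-cell quantification.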

Tel-cKit-BaF3 = test: Proliferation of Tel-cKit-BaF3 cells, CCK8 cell viability assay; format: cell-based, mouse; settings: Mus musculus; 72 hours, CCK8; stably expressing cKIT kinase
Summary of the method: (§2)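 Mouse BaF3 ± TEL-kinase fusion (human cKIT/PDGFRα/PDGFRβ kinase region, MSCV-Puro retrovirus, IL-3 removed → kinase-addicted). Viability by CCK8 (dehydrogenase), GI50 μM.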

P210/T315I-BaF3 = test: Proliferation of P210/T315I-BaF3 cells, CCK8 cell viability assay; format: cell-based; settings: Mus musculus, 72 hours, stably expressing BCR-ABL/T315I
Summary of the method: as §1

TEL-PDGFRβ-BaF3 = test: Proliferation of TEL-PDGFRβ-BaF3 cells, CCK8 cell viability assay; format: cell-based; settings: Mus musculus, 72 hours, stably expressing PDGFRβ kinase
Summary of the method: as §2

Tel-FLT3-BaF3 = test: Proliferation of Tel-FLT3-BaF3 cells, CCK8 cell viability assay; format: cell-based; settings: Mus musculus, 72 hours, stably expressing FLT3 kinase
Summary of the method: as §1

Tel-cKit/T670I-BaF3 = test: Proliferation of Tel-cKit/T670I-BaF3 cells, CCK8 cell viability assay; format: cell-based; settings: Mus musculus, 72 hours, stably expressing cKIT/T670I
Summary of the method: as §2

TEL-PDGFRα-BaF3 = test: Proliferation of TEL-PDGFRα-BaF3 cells, CCK8 cell viability assay; format: cell-based; settings: Mus musculus, 72 hours, stably expressing PDGFRα kinase
Summary of the method: as §2

TEL-VEGFR2-BaF3 = test: Proliferation of TEL-VEGFR2-BaF3 cells, CCK8 cell viability assay; format: cell-based; settings: Mus musculus, 72 hours, stably expressing VEGFR2 kinase
Summary of the method: as §1

P210-BaF3 = test: Proliferation of P210-BaF3 cells, CCK8 cell viability assay; format: cell-based; settings: Mus musculus, 72 hours, stably expressing BCR-ABL mutant activated kinase
Summary of the method: as §1

Compound | GI50 (BaF3) [µM] | GI50 (Tel-RET-BaF3) [µM] | GI50 (FLT3-ITD-BaF3) [µM] | GI50 (Tel-cKit-BaF3) [µM] | GI50 (P210/T315I-BaF3) [µM] | GI50 (TEL-PDGFRβ-BaF3) [µM] | GI50 (Tel-FLT3-BaF3) [µM] | GI50 (Tel-cKit/T670I-BaF3) [µM] | GI50 (TEL-PDGFRα-BaF3) [µM] | GI50 (TEL-VEGFR2-BaF3) [µM] | GI50 (P210-BaF3) [µM]
CC(=O)Nc1cc(Oc2ccc(NC(=O)Cc3ccccc3F)cc2)ncn1 [Example 25, N-[4-(6-acetylamino-pyrimidin-4-yloxy)-phenyl]-2-(2-fluoro-phenyl)-acetamide] | > 10 | > 10 | 0.263 | > 10 | 1.04 | 0.073 | 1.15 | > 10 | 0.033 | 2.11 | > 10
COc1cc(CC(=O)Nc2ccc(Oc3cc(NC(C)=O)ncn3)cc2)ccc1O [Example 11, N-[4-(6-acetylamino-pyrimidin-4-yloxy)-phenyl]-2-(4-hydroxy-3-methoxy-phenyl)-acetamide] | > 10 | > 10 | 0.346 | > 10 | > 10 | 0.271 | 1.1 | > 10 | 0.227 | 1.52 | > 10
COc1ccccc1CC(=O)Nc1ccc(Oc2cc(NC(C)=O)ncn2)cc1 [Example 24, N-[4-(6-acetylamino-pyrimidin-4-yloxy)-phenyl]-2-(2-methoxy-phenyl)-acetamide] | > 10 | > 10 | 0.331 | > 10 | > 10 | 0.356 | 1.76 | > 10 | 0.077 | 3.1 | > 10
CC(=O)Nc1cc(Oc2ccc(NC(=O)Cc3cccc(Br)c3)cc2)ncn1 [Example 13, N-[4-(6-acetylamino-pyrimidin-4-yloxy)-phenyl]-2-(3-bromo-phenyl)-acetamide] | > 10 | > 10 | 0.099 | 6.89 | > 10 | 0.033 | 0.616 | > 10 | 0.004 | 0.566 | > 10
CC(=O)Nc1cc(Oc2ccc(NC(=O)Cc3cccc(Oc4ccccc4)c3)cc2)ncn1 [Example 12, N-[4-(6-acetylamino-pyrimidin-4-yloxy)-phenyl]-2-(3-phenoxy-phenyl)-acetamide] | > 10 | 0.672 | 0.204 | 2.13 | > 10 | 0.029 | 0.649 | 8.64 | 0.02 | 0.229 | > 10
Cc1ccc(NC(=O)NC2CCC(Oc3cc(NCCNC(=O)OC(C)(C)C)ncn3)CC2)cc1C(F)(F)F (stereo not shown) [Example 124, [2-(6-{4-[3-(4-methyl-3-trifluoromethyl-phenyl)-ureido]-cyclohexyloxy}-pyrimidin-4-ylamino)-ethyl]-aminotert-butyl Formate] | 1.17 | 1.92 | 0.149 | 2.56 | 1.54 | 0.18 | 0.694 | 2.27 | 0.15 | 0.89 | 2.8
CC(=O)Nc1cc(Oc2ccc(NC(=O)Cc3ccccc3Cl)cc2)ncn1 [Example 26, N-[4-(6-acetylamino-pyrimidin-4-yloxy)-phenyl]-2-(2-chloro-phenyl)-acetamide] | > 10 | > 10 | 0.077 | 8.68 | > 10 | 0.18 | 0.436 | > 10 | 0.074 | 1.24 | > 10
CC(=O)Nc1cc(Oc2ccc(NC(=O)Cc3ccccc3Br)cc2)ncn1 [Example 17, N-[4-(6-acetylamino-pyrimidin-4-yloxy)-phenyl]-2-(2-bromo-phenyl)-acetamide] | > 10 | 0.229 | 0.129 | > 10 | > 10 | 0.105 | 0.744 | > 10 | 0.013 | 0.553 | > 10

More lines, now with the values ahead:

GI50 (BaF3) [µM] | GI50 (Tel-RET-BaF3) [µM] | GI50 (FLT3-ITD-BaF3) [µM] | GI50 (Tel-cKit-BaF3) [µM] | GI50 (P210/T315I-BaF3) [µM] | GI50 (TEL-PDGFRβ-BaF3) [µM] | GI50 (Tel-FLT3-BaF3) [µM] | GI50 (Tel-cKit/T670I-BaF3) [µM] | GI50 (TEL-PDGFRα-BaF3) [µM] | GI50 (TEL-VEGFR2-BaF3) [µM] | GI50 (P210-BaF3) [µM] | Compound
> 10 | 7.9 | 0.14 | 4.6 | > 10 | 0.061 | 0.65 | 6.3 | 0.038 | 3.9 | > 10 | CCCCC(=O)Nc1cc(Oc2ccc(NC(=O)Cc3ccccc3C(F)(F)F)cc2)ncn1 [Example 55, N-(6-{4-[2-(2-trifluoromethyl-phenyl)-acetylamino]-phenoxy}-pyrimidin-4-yl)-valeramide]
> 10 | > 10 | 0.142 | 8.35 | > 10 | 0.089 | 0.546 | > 10 | 0.028 | 3.17 | > 10 | CCC(=O)Nc1cc(Oc2ccc(NC(=O)Cc3ccccc3C(F)(F)F)cc2)ncn1 [Example 47, N-(6-{4-[2-(2-trifluoromethyl-phenyl)-acetylamino]-phenoxy}-pyrimidin-4-yl)-propanamide]
> 10 | > 10 | 0.004 | 0.524 | > 10 | 0.003 | 0.017 | > 10 | 0.001 | 0.139 | 6.74 | CC(=O)Nc1cc(Oc2ccc(NC(=O)Cc3ccc(Cl)cc3Cl)cc2)ncn1 [Example 8, N-[4-(6-acetylamino-pyrimidin-4-yloxy)-phenyl]-2-(2,4-dichloro-phenyl)-acetamide]
> 10 | > 10 | 0.067 | 3.21 | > 10 | 0.07 | 0.236 | > 10 | 0.035 | 0.518 | > 10 | CC(=O)Nc1cc(Oc2ccc(NC(=O)Cc3cc(C)ccc3C)cc2)ncn1 [Example 7, N-[4-(6-acetylamino-pyrimidin-4-yloxy)-phenyl]-2-(2,5-dimethyl-phenyl)-acetamide]
> 10 | 0.247 | 0.247 | > 10 | > 10 | 0.109 | 0.818 | > 10 | 0.012 | 0.853 | > 10 | CC(=O)Nc1cc(Oc2ccc(NC(=O)Cc3cccc(F)c3F)cc2)ncn1 [Example 16, N-[4-(6-acetylamino-pyrimidin-4-yloxy)-phenyl]-2-(2,3-difluoro-phenyl)-acetamide]
> 10 | > 10 | 0.206 | 0.855 | > 10 | 0.007 | 0.814 | 9.22 | 0.005 | 2.58 | > 10 | CC(C)C(=O)Nc1cc(Oc2ccc(NC(=O)Cc3cccc(C(F)(F)F)c3)cc2)ncn1 [Example 50, N-(6-{4-[2-(3-trifluoromethyl-phenyl)-acetylamino]-phenoxy}-pyrimidin-4-yl)-isobutyramide]
5.5 | 3.59 | 0.274 | 5.18 | 4.11 | 0.096 | 0.198 | 3.91 | 0.094 | 3.77 | 5.38 | Cc1ccc(NC(=O)N[C@H]2CC[C@H](Oc3cc(NCCO)ncn3)CC2)cc1C(F)(F)F [Example 42, 1-((1R,4R)-4-((6-((2-hydroxyethyl)amino)pyrimidin-4-yl)oxy)cyclohexyl)-3-(4-methyl-3-(trifluoromethyl)phenyl)urea]
7.8 | 3.18 | 0.109 | 5.12 | 4.69 | 0.233 | 0.263 | 0.707 | 0.059 | 2.9 | 4.43 | COCCNc1cc(OC2CCC(NC(=O)Nc3ccc(C)c(C(F)(F)F)c3)CC2)ncn1 (stereo not shown) [Example 41, 1-{4-[6-(2-methoxy-ethylamino)-pyrimidin-4-yloxy]-cyclohexyl}-3-(4-methyl-3-trifluoromethyl-phenyl)-urea]
3.37 | 4.3 | 0.036 | 0.391 | 3.92 | 0.017 | 0.206 | 0.394 | 0.008 | 0.17 | 3.92 | Cc1ccc(NC(=O)Nc2ccc(Oc3cc(NCCN4CCCC4)ncn3)cc2)cc1C(F)(F)F [Example 122, 1-(4-methyl-3-trifluoromethyl-phenyl)-3-{4-[6-(2-pyrrolidin-1-yl-ethylamino)-pyrimidin-4-yloxy]-phenyl}-urea]

Source: patent US11602534B2, “Pyrimidine derivative kinase inhibitors” (HEFEI INSTITUTES OF PHYSICAL SCIENCE, CHINESE ACADEMY OF …, priority 2017, dated 2023)
